Reference: BindingDB's records for patent US10633389 (Epizyme, Inc., 2020)

Biological target: T1, Histone-arginine methyltransferase CARM1 (Homo sapiens, UniProt Q86X55)
T1 sequence (Q86X55 whole entry): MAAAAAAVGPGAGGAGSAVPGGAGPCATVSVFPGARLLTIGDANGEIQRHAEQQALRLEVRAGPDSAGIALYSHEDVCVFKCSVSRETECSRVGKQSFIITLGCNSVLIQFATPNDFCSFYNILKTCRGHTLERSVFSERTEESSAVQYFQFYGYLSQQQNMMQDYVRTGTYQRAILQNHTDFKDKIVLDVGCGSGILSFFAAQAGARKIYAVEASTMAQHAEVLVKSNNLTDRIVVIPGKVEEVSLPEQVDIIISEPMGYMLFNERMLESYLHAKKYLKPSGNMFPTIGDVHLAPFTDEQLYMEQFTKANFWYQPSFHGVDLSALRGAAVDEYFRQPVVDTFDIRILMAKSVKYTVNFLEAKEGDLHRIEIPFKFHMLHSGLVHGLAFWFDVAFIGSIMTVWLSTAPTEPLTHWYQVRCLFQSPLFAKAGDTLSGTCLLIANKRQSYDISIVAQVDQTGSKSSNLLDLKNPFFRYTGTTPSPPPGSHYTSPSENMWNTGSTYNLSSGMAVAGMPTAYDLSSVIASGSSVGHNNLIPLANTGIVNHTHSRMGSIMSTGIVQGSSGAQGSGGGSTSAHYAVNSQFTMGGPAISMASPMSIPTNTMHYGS
Assay: Enzyme Assay
Description: The assays were all performed in a buffer consisting of 20 mM Bicine (pH=7.6), 1 mM TCEP, 0.005% BSG, and 0.002% Tween 20, prepared on the day of use. […] DMSO (1 ul) was added to Columns 11, 12, 23, 24, rows A-H for the maximum signal control and 1 ul of SAH, a known product and inhibitor of CARM1, was added to columns 11, 12, 23, 24, rows I-P for the minimum signal control. A cocktail (40 ul) containing the CARM1 enzyme was added by Multidrop Combi. The compounds were allowed to incubate with CARM1 for 30 min at room temperature, then a cocktail (10 ul) containing 3H-SAM and peptide was added to initiate the reaction (final volume=51 ul). […] The assays were stopped by the addition of non-radiolabeled SAM (10 ul) to a final concentration of 300 uM, which dilutes the 3H-SAM to a level where its incorporation into the peptide substrate is no longer detectable. 50 ul of the reaction in the 384-well polypropylene plate was then transferred to a 384-well Flashplate and the biotinylated peptides were allowed to bind to the streptavidin surface for at least 1 hour before being washed once with 0.1% Tween20 in a Biotek ELx405 plate washer.

## CNCC(O)COc1cccc(-c2nc(N[C@@H]3CCOC3)c(C)c(N3CCC(n4c(C)nnc4C)CC3)n2)c1 (stereo partly specified) [US10633389, Example 390-1a]
  IC50: < 0.1 µM

## CNCC(O)COc1cccc(-c2nc(N[C@@H]3CCOC3)c(C)c(-c3ccc4nccn4c3)n2)c1 (stereo partly specified) [US10633389, Example 445-1a]
  IC50: < 0.1 µM

## CNC[C@@H](O)COc1ccc(Cl)c(-c2nc(NC3CCN(C4CC4)CC3(F)F)c(C)c(-c3c(C)noc3C)n2)c1 (stereo partly specified) [US10633389, Example 292-3]
  IC50: < 0.1 µM

## CNCC(O)COc1cccc(-c2nc(N[C@@H]3CCOC3)c(C)c(N3CCC[C@H]4CN(Cc5ccccc5)C[C@H]43)n2)c1 (stereo partly specified) [US10633389, Example 378-1a]
  IC50: < 0.1 µM

## CCN1CCC(Nc2nc(-c3cc(OC[C@H](O)CNC)ccc3Cl)nc(-c3c(C)noc3C)c2C)C(F)(F)C1 (stereo partly specified) [US10633389, Example 291-3]
  IC50: < 0.1 µM

## CCS(=O)(=O)n1cc(-c2cc(N(C)C3CCOCC3)nc(-c3cccc(OCC(O)CNC)c3)n2)c2cncnc21 (stereo unspecified) [US10633389, Example 484-1a]
  IC50: < 0.1 µM
